Assay results: PMC5144078, “Bifidobacterium breve UCC2003 metabolises the human milk oligosaccharides lacto-N-tetraose and lacto-N-neo-tetraose through overlapping, yet distinct pathways” (Scientific Reports, 2016)

Tests used:
Assay in all cases: HPAEC-PAD product analysis
LntA (LntAHis) = biological target: T1, LntA (LntAHis) (Bifidobacterium breve, UniProt D4BMY8); format: biochemical; details: 20 mM MOPS pH 7.0, 37 °C, 24 h, 1 mg/ml substrate
T1 construct: gene BIFBRE_03435; GH42 beta-galactosidase; purified His-tagged protein
T1 sequence (D4BMY8 1-691): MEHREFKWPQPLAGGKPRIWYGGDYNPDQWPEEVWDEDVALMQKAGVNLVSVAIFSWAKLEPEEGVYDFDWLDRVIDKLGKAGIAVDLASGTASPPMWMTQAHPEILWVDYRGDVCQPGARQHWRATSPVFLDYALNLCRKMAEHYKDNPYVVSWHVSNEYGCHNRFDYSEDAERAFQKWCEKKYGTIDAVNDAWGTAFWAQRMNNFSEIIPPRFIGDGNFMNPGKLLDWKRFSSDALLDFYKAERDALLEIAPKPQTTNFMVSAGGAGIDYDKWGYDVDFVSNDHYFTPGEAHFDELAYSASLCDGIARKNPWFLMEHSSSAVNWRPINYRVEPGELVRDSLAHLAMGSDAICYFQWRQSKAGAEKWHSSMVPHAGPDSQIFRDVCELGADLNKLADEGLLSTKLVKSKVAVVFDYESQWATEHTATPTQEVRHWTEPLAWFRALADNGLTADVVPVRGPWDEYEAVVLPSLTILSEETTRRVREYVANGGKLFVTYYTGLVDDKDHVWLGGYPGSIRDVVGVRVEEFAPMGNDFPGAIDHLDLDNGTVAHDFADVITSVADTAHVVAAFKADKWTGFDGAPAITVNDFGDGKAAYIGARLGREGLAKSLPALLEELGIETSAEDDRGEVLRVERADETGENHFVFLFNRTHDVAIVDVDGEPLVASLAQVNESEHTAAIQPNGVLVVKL

LacZ6 (LacZ6His) = biological target: T2, LacZ6 (LacZ6His) (Bifidobacterium breve, UniProt D4BR09); details: 20 mM MOPS pH 7.0, 37 °C, 24 h, 1 mg/ml substrate
T2 construct: gene BIFBRE_04539
T2 sequence (D4BR09 1-1045): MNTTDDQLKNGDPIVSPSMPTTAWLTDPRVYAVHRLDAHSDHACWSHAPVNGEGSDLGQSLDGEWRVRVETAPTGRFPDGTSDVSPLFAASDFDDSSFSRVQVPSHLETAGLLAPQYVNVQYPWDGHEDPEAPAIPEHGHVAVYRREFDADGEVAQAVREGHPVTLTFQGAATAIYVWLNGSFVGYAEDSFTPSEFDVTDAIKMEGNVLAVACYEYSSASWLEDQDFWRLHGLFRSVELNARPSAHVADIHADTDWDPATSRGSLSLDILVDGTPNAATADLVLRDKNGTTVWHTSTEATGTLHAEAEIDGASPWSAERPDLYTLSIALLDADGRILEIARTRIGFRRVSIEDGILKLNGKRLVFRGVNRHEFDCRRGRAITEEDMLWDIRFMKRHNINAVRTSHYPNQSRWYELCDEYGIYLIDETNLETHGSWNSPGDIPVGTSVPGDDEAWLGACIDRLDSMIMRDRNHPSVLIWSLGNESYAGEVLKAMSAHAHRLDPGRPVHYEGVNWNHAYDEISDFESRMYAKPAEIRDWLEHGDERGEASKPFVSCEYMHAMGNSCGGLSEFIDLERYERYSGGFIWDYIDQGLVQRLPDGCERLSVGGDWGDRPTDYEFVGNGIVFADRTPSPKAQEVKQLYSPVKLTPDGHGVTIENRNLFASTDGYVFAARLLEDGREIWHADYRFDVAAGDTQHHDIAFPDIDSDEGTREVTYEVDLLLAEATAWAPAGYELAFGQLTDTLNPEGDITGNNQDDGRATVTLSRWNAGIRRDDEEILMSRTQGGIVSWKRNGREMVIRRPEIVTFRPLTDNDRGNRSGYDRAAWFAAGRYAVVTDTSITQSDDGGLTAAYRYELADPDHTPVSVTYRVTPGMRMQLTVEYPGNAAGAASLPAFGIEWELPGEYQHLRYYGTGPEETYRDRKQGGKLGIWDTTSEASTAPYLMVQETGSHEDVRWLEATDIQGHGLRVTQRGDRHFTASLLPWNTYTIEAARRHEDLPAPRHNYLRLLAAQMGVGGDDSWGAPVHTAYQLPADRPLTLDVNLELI

NahA (NahAHis) = biological target: T3, NahA (NahAHis) (Bifidobacterium breve, UniProt D4BR02); format: biochemical; details: MOPS pH 7.0, 37 °C; lacto-N-triose made in situ from LNT or LNnT by LntA, LntA heat-denatured before NahA addition
T3 construct: gene BIFBRE_04532; GH20 beta-N-acetylhexosaminidase; N-terminal His10 tag; gene of 660 codons; expressed in Lactococcus lactis NZ9000
T3 sequence (D4BR02 entry or part of it): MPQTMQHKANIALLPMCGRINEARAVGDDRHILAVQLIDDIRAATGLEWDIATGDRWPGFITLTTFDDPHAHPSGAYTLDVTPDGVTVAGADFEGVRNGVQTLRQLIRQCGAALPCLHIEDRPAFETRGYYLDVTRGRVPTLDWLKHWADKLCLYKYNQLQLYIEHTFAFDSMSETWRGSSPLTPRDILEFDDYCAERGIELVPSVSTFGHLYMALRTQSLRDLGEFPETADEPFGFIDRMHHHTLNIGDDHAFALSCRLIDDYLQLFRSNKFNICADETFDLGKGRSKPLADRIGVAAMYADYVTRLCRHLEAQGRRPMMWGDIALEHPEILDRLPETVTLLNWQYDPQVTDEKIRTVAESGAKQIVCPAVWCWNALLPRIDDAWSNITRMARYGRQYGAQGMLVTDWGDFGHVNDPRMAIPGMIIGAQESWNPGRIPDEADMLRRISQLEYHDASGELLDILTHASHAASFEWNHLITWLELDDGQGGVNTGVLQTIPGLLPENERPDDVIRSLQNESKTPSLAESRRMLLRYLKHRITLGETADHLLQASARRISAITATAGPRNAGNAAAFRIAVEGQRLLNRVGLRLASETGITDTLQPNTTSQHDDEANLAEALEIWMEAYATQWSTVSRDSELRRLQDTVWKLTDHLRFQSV

Structure (SMILES)	HPAEC-PAD product analysis (LntA (LntAHis))	HPAEC-PAD product analysis (LacZ6 (LacZ6His))	HPAEC-PAD product analysis (NahA (NahAHis))
CC(=O)N[C@H]1[C@H](O[C@H]2[C@@H](O)[C@@H](CO)O[C@@H](O[C@H]3[C@H](O)[C@@H](O)C(O)O[C@@H]3CO)[C@@H]2O)O[C@H](CO)[C@@H](O[C@@H]2O[C@H](CO)[C@H](O)[C@H](O)[C@H]2O)[C@@H]1O (stereo partly shown) [LNnT, lacto-N-neotetraose]	Purified LntAHis was capable of removing the galactose moiety at the non-reducing end of LNnT	Purified LacZ2His and LacZ6His were, under the conditions applied, also capable of hydrolysing LNnT	
CC(=O)N[C@H]1[C@H](O[C@H]2[C@@H](O)[C@@H](CO)O[C@@H](O[C@H]3[C@H](O)[C@@H](O)C(O)O[C@@H]3CO)[C@@H]2O)O[C@H](CO)[C@@H](O)[C@@H]1O (stereo partly shown) [lacto-N-triose]			Lacto-N-triose is then hydrolysed by NahA, liberating Lactose and GlcNAc
CC(=O)N[C@H]1[C@H](O[C@H]2[C@@H](O)[C@@H](CO)O[C@@H](O[C@H]3[C@H](O)[C@@H](O)C(O)O[C@@H]3CO)[C@@H]2O)O[C@H](CO)[C@@H](O)[C@@H]1O[C@@H]1O[C@H](CO)[C@H](O)[C@H](O)[C@H]1O (stereo partly shown) [LNT, lacto-N-tetraose]	Purified LntAHis was shown to remove the galactose moiety at the non-reducing end		
